Experimental findings from ChEMBL document CHEMBL1938371, “Discovery of AZD2932, a new Quinazoline Ether Inhibitor with high affinity for VEGFR-2 and PDGFR tyrosine kinases” (Bioorg Med Chem Lett, 2012) are described below.

The target in series [1] is Platelet-derived growth factor receptor alpha (Homo sapiens) (UniProt P16234). In words: Inhibition of PDGFRalpha phosphorylation by cell based assay.
A short description of series [2]: Oral bioavailability in rat. It is filed as ADME, organism-based. The note with it: in vivo.
Series [3] addresses Macrophage colony-stimulating factor 1 receptor (Homo sapiens, UniProt P07333). The series is described as follows: Inhibition of CSF1R phosphorylation by cell based assay.
In series [4] the target is Vascular endothelial growth factor receptor 2 (Homo sapiens) (UniProt P35968). In words: Inhibition of VEGFR2 phosphorylation by cell based assay.
Series [5] concerns the target Platelet-derived growth factor receptor beta (Homo sapiens, UniProt P09619). The series is described as follows: Inhibition of PDGFRbeta phosphorylation by cell based assay.
Series [6] in a line: Chemical stability of the compound at pH 1. The note with it: buffer. It counts as physicochemical.
Series [7] deals with T1, Receptor-type tyrosine-protein kinase FLT3 (Homo sapiens, UniProt P36888).
T1 sequence (P36888 whole entry): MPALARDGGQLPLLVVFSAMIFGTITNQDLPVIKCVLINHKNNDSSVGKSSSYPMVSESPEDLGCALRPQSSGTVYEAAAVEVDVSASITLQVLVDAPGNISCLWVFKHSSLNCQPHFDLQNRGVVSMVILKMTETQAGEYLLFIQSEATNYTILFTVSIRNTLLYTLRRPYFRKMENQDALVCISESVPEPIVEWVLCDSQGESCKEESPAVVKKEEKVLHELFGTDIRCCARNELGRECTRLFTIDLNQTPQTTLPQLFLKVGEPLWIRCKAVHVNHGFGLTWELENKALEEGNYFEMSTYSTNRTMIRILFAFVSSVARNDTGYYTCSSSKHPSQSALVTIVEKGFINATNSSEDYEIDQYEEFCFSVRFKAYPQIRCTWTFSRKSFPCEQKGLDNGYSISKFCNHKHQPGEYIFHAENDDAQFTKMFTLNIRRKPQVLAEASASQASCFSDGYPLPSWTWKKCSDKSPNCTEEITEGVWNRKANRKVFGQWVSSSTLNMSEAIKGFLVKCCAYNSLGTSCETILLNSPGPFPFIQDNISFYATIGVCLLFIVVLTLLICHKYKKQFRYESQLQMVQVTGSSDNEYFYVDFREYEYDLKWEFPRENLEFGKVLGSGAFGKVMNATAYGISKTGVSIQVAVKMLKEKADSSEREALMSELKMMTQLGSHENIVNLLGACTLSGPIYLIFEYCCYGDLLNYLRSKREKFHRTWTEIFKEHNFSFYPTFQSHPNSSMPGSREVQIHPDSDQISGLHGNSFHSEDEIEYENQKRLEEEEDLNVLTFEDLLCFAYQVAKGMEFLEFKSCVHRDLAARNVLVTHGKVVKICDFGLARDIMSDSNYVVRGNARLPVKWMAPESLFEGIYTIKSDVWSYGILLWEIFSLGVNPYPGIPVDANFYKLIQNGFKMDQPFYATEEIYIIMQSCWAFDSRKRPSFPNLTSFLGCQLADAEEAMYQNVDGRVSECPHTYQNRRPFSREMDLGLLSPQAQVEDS
The series is described as follows: Inhibition of FLT3 phosphorylation by cell based assay.

The source made the active and inactive calls. The rule behind the calls is not given here.

Sequence of Platelet-derived growth factor receptor beta (P09619 whole entry): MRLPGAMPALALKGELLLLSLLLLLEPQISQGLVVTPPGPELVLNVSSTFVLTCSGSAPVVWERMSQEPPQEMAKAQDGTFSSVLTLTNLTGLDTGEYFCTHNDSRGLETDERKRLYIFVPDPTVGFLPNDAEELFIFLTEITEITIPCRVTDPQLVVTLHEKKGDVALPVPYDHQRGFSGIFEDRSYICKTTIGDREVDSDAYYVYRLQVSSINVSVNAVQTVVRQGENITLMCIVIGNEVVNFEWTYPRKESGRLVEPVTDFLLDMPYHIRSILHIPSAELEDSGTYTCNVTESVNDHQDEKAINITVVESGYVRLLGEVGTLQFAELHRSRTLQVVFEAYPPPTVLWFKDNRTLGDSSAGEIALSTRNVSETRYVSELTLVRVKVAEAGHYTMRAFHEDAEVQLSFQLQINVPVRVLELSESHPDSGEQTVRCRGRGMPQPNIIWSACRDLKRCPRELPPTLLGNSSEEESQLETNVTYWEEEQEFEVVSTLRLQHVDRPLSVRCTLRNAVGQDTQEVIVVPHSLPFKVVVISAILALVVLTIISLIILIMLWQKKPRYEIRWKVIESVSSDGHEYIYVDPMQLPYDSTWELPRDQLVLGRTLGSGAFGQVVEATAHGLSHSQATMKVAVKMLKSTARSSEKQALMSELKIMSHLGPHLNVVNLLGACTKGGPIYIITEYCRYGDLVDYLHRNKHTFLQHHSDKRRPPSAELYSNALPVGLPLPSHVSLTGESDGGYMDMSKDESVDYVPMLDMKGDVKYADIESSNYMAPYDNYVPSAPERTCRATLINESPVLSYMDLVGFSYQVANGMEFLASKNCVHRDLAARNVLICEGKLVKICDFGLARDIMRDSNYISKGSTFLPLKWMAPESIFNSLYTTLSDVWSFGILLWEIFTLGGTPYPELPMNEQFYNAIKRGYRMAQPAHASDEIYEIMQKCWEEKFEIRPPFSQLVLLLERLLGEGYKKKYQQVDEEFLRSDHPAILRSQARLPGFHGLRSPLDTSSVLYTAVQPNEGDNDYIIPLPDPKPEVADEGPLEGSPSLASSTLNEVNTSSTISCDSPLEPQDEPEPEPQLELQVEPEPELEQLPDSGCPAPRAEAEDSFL
Sequence of Platelet-derived growth factor receptor alpha (Homo sapiens) (P16234 whole entry): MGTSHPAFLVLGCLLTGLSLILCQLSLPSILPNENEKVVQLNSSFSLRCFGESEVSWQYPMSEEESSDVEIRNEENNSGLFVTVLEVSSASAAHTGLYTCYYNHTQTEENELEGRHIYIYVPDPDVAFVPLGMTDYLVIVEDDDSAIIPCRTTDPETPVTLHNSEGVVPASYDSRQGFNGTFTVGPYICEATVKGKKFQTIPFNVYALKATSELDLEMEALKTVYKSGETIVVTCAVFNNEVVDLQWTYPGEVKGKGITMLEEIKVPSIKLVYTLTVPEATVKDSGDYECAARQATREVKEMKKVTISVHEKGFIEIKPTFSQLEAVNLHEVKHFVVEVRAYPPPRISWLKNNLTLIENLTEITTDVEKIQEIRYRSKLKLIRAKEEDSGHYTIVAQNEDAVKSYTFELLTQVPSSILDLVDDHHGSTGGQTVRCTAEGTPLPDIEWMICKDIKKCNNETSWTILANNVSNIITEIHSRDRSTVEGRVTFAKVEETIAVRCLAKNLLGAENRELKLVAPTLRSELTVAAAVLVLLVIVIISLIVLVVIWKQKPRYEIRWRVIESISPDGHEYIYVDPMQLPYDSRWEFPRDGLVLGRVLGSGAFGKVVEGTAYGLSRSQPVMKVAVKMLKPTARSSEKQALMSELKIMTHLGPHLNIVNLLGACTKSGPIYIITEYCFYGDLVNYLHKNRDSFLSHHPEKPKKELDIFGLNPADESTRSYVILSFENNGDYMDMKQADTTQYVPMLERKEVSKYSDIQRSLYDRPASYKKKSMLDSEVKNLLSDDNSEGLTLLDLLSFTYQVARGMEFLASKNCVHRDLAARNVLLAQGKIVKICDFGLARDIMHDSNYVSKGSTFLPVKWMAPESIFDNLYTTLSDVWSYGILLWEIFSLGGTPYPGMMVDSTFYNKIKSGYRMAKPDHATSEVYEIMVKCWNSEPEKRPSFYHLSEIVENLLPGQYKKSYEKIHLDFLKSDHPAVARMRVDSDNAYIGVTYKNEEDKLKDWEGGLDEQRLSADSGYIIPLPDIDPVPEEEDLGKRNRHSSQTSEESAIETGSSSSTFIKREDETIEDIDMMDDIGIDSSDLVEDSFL
Sequence of Macrophage colony-stimulating factor 1 receptor (P07333 whole entry): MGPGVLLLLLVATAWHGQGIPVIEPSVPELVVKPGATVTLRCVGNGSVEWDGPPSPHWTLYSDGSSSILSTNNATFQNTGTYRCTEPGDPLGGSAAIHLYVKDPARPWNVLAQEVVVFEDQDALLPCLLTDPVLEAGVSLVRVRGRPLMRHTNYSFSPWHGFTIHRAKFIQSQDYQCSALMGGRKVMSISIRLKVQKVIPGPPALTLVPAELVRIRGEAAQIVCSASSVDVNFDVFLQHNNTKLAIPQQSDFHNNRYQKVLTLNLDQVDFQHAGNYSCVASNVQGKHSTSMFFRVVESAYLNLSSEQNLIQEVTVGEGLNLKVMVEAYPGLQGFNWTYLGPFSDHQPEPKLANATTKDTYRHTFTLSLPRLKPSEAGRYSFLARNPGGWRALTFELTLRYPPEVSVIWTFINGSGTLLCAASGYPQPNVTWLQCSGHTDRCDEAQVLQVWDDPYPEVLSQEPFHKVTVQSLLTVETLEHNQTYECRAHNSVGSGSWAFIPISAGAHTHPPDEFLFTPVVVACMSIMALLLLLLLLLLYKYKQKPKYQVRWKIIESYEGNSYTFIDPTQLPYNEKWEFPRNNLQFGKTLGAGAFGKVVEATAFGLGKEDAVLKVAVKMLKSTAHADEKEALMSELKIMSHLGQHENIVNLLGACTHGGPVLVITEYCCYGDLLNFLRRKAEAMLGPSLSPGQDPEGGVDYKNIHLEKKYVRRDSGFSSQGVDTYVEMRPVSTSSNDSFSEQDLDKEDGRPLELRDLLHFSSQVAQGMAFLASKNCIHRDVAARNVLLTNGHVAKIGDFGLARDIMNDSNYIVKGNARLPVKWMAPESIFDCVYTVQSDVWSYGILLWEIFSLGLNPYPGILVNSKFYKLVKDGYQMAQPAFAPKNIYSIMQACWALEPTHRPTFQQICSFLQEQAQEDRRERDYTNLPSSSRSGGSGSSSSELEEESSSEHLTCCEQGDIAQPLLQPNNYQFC

What is called bioavailability is dose-corrected exposure relative to a reference, in per cent. Low readings indicate little systemic uptake, high ones much systemic uptake. One may read the IC50 as the concentration that inhibits the measured activity by half. Low readings indicate inhibition by little substance, high ones a need for much substance. With `COc1cccc(NC(=O)Cn2cc(Oc3ncnc4cc(OCCN5CCCC5)c(OC)cc34)cn2)c1`, in series [1], the inhibition result is “Active”. In addition, the bioavailability in series [2] was < 20%. Besides, the IC50 in series [3] was found to be 30 nM; in series [4], 7 nM; in series [5] it was 1 nM; in series [7] it was 5 nM. In series [6], this compound gave a Stability of 0.1 days.
Consider `COCCOc1cc2ncnc(Oc3cnn(CC(=O)Nc4cccc(OC)c4)c3)c2cc1OC`, for which the inhibition result in series [1] is “Active”. Further, the bioavailability in series [2] was < 20%. In addition, the IC50 was 8 nM in series [3], 0.2 nM in series [4], 0.3 nM in series [5] and 2 nM in series [7]. In series [6], this compound showed a Stability of 0.1 days.
Turning to `COc1cccc(C(=O)NCc2ccc(Oc3ncnc4cc(OC)c(OC)cc34)cc2)c1`, the inhibition result in series [1] is “Active”. Besides, the IC50 in series [3] is > 1000 nM; in series [4], 6140 nM; in series [5], 300 nM; in series [7] it was > 1000 nM.
With `COc1cc2ncnc(Oc3ccc(CC(=O)Nc4ccc(N(C)C)cn4)cc3)c2cc1OC`, the inhibition entry in series [1] is “Active”. In addition, the IC50 in series [3] turned out to be 600 nM; in series [4] it was 22 nM; in series [5], 5 nM; in series [7], 9 nM.
For `COc1cccc(NC(=O)NCc2ccc(Oc3ncnc4cc(OC)c(OC)cc34)cc2)c1`, in that order: “Active”, > 1000 nM, 177 nM, 9 nM and 8 nM.
In the case of `COc1cccc(CC(=O)Nc2ccc(Oc3ncnc4cc(OC)c(OC)cc34)cc2)c1`, in series [1], the inhibition result was “Active”. For the same compound, the IC50 in series [3] came to 30 nM; in series [4], 209 nM; in series [5], 4 nM; in series [7], 10 nM.
In the case of `COc1cc2ncnc(Oc3cnn(CC(=O)Nc4ccc(N(C)C)cn4)c3)c2cc1OC`, the inhibition entry in series [1] was “Active”. The bioavailability in series [2] was < 20%. In addition, the IC50 in series [3] came to 20 nM; in series [4], 39 nM; in series [5], 3 nM; in series [7], 3 nM. In series [6], the Stability was 0.1 days.
For the compound `COc1cccc(S(=O)(=O)NCc2ccc(Oc3ncnc4cc(OC)c(OC)cc34)cc2)c1`, the inhibition result in series [1] was “Active”. Further, the IC50 in series [3] is > 1000 nM; in series [4], > 10000 nM; in series [5] it was > 1000 nM; in series [7] it was > 1000 nM.
`COc1cc2ncnc(Nc3cnn(CC(=O)Nc4ccc(N(C)C)cn4)c3)c2cc1OC`: the inhibition result in series [1] is “Active”. In addition, the bioavailability in series [2] is < 20%. For the same compound, the IC50 is > 1000 nM in series [3], 453 nM in series [4], > 200 nM in series [5] and 10 nM in series [7]. This compound also showed a Stability in series [6] of 0.1 days.
As to `COc1cccc(NC(=O)Cn2cc(Oc3ccnc4cc(OC)c(C#N)cc34)cn2)c1`, in series [1], the inhibition entry was “Active”. For the same compound, in series [2], the bioavailability was < 20%. Besides, the IC50 in series [3] was 50 nM; in series [4], 282 nM; in series [5], 2 nM; in series [7], 40 nM. In series [6], this compound yielded a Stability of 0.1 days.
Consider `COc1cccc(NC(=O)Cn2cc(Oc3ncnc4cc(OC)cc(OC)c34)cn2)c1`, for which, in series [1], the inhibition result was “Active”. Besides, the bioavailability in series [2] was < 20%. Besides, the IC50 was determined as 100 nM in series [3], 30 nM in series [4], 2 nM in series [5] and 5 nM in series [7]. Moreover, the Stability in series [6] amounted to 0.1 days.
As for `COCCOc1cc2c(Oc3cnn(CC(=O)Nc4cccc(OC)c4)c3)ncnc2cc1OC`, the inhibition result in series [1] was “Active”. In addition, the bioavailability in series [2] was < 20%. Further, the IC50 was 90 nM in series [3], < 5 nM in series [4], 2 nM in series [5] and 3 nM in series [7]. This compound registered a Stability in series [6] of 0.1 days.
Regarding `COc1cccc(NC(=O)Cc2cccc(Oc3ncnc4cc(OC)c(OC)cc34)c2)c1`, in series [1], the inhibition entry is “Active”. Also, the IC50 in series [3] was > 1000 nM; in series [4], 1010 nM; in series [5], 300 nM; in series [7] it was > 1000 nM.
As to `CCc1cc(NC(=O)Cc2ccc(Oc3ncnc4cc(OC)c(OC)cc34)cc2)n[nH]1`, in series [1], the inhibition result is “Active”. For the same compound, the IC50 was > 600 nM in series [3], < 5 nM in series [4], 4 nM in series [5] and 5 nM in series [7].
As to `CCn1cc(NC(=O)Cc2ccc(Oc3ccnc4cc(OC)c(OC)cc34)cc2)cn1`, the inhibition entry in series [1] is “Active”. Besides, the IC50 is 40 nM in series [3], 12 nM in series [4], 0.4 nM in series [5] and 4 nM in series [7].
On to `CCn1cc(NC(=O)Cn2cc(Oc3ncnc4cc(OC)c(OC)cc34)cn2)cn1`, for which the inhibition entry in series [1] is “Active”. Further, the bioavailability in series [2] is < 20%. The IC50 in series [3] was 200 nM; in series [4], 35 nM; in series [5], 4 nM; in series [7], 4 nM. Further, the Stability in series [6] came to 0.1 days.
As for `COc1cccc(NC(=O)Cn2cc(Oc3ncnc4cc(OC)c(OC)cc34)cn2)c1`, the inhibition entry in series [1] was “Active”. In addition, the bioavailability in series [2] was < 20%. Also, the IC50 in series [3] turned out to be 10 nM; in series [4], 0.4 nM; in series [5], 0.8 nM; in series [7], 2 nM. In series [6], this compound came in with a Stability of 0.1 days.
`COc1cccc(CNC(=O)c2ccc(Oc3ncnc4cc(OC)c(OC)cc34)cc2)c1`: the inhibition result in series [1] was “Active”. Besides, the IC50 in series [3] was > 1000 nM; in series [4], 3060 nM; in series [5] it was 700 nM; in series [7], > 400 nM.
For `CCn1cc(NC(=O)Cc2ccc(Oc3ncnc4cc(OC)c(OC)cc34)cc2)cn1`, in that order: “Active”, > 800 nM, 29 nM, 3 nM and 10 nM.
Consider `COc1cccc(NC(=O)Cn2cc(Oc3ccnc4cc(OC)c(OC)cc34)cn2)c1`, for which, in series [1], the inhibition result was “Active”. For the same compound, the bioavailability in series [2] is < 20%. In addition, the IC50 in series [3] stood at 40 nM; in series [4], 57 nM; in series [5] it was 2 nM; in series [7] it was 20 nM. The compound further showed a Stability in series [6] of 0.1 days.
`COc1cc2ncnc(Oc3ccc(CC(=O)Nc4cnn(C)c4)cc3)c2cc1OC`: the inhibition result in series [1] was “Active”. Also, the IC50 was > 1000 nM in series [3], 667 nM in series [4], 40 nM in series [5] and 80 nM in series [7].
The corresponding values for `COc1cccc(COc2ccc(Oc3ncnc4cc(OC)c(OC)cc34)cc2)c1` are “Active”, 300 nM, 128 nM, 20 nM and 20 nM.
The corresponding values for `COc1cccc(NC(=O)Cc2ccc(Oc3ncnc4cc(OC)c(OC)cc34)cc2)c1` are “Active”, 300 nM, 8 nM, 0.9 nM and 7 nM.
The corresponding values for `COc1cccc(NC(=O)Cc2ccc(Nc3ncnc4cc(OC)c(OC)cc34)cc2)c1` are “Active”, > 1000 nM, 175 nM, 10 nM and > 60 nM.
Consider `COc1cc2ncnc(Oc3ccc(CC(=O)Nc4cn[nH]c4)cc3)c2cc1OC`, for which the inhibition entry in series [1] was “Active”. The IC50 was > 1000 nM in series [3], > 10000 nM in series [4], > 2000 nM in series [5] and > 800 nM in series [7].
Turning to `CCn1ccc(NC(=O)Cc2ccc(Oc3ncnc4cc(OC)c(OC)cc34)cc2)n1`, the inhibition result in series [1] was “Active”. Also, the IC50 in series [3] was > 1000 nM; in series [4], 172 nM; in series [5], 10 nM; in series [7] it was 20 nM.
